# From US20230015478A1, “GLP-1 RECEPTOR AGONISTS HAVING IMPROVED PHARMACOLOGICAL AND DRUG DELIVERY PROPERTIES” (priority 2021, published 2023)
# Like-named read-outs stand apart in the source and are kept apart here. Square brackets hold non-standard residues; d marks the D form. Peptide text beside a SMILES is read from it. Bip = N[C@@H](Cc1ccc(-c2ccccc2)cc1)C(=O)O; αMePhe(2-F) = C[C@](N)(Cc1ccccc1F)C(=O)O; Phe(2-Cl) = N[C@@H](Cc1ccccc1Cl)C(=O)O; Phe(2-F) = N[C@@H](Cc1ccccc1F)C(=O)O; hPhe = N[C@@H](CCc1ccccc1)C(=O)O; Aib = CC(C)(N)C(=O)O
# Molecular target: T1, hGLP1 receptor (Homo sapiens, UniProt P43220)
# T1 construct: expressed in transfected cells; host or cells: HEK (human embryonic kidney) cells co-expressing hGLP1 receptor and CRE-Luciferase
# T1 sequence (P43220 24-463): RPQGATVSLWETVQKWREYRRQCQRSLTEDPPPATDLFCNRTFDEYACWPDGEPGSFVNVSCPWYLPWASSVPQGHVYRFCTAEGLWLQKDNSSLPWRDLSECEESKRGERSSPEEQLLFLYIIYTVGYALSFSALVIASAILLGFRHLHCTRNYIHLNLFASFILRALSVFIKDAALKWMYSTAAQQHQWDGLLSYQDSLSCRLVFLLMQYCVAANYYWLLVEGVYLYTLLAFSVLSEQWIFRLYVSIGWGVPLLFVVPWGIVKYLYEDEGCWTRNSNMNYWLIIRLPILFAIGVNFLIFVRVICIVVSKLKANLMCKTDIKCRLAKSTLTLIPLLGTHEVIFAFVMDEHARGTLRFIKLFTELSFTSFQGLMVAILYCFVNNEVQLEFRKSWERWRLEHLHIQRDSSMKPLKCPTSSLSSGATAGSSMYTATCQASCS
# Assay: cAMP HTRF agonist assay in HEK cells co-expressing hGLP1 receptor and CRE-Luciferase
# Assay type: cell-based
# Protocol: Human embryonic kidney cells (HEK) co-expressing the hGLP1 receptor and CRE-Luciferase construct were used to determine agonist potency in this assay. The cells were thawed briefly at 37° C., transferred to a sterile tube and re-suspended in complete media at 37° C. Cells were centrifuged at 1000 rpm for 5 minutes and cells collected; cells were re-suspended in assay buffer consisting of DPBS (GIBCO) with 500 μM of the phosphodiesterase inhibitor IBMX. […] The optimal cell density was determined to be 1000 cells/well; cells were added to wells in 384-well plates containing appropriate pre-prepared dilutions of compounds (test peptides or reference compound exendin-4), sealed and incubated with CO2 for 30 min. Test peptide solutions were diluted from 10 mM stock solutions; for most peptides an initial run was performed in duplicate from a maximal concentration of 1.0 μM, with 11 concentrations tested for each peptide using serial 1:3 dilution from this maximal concentration. […] The agonist assay was a homogeneous time-resolved fluorescence (HTRF) assay (Cisbio).
# Following incubation of the cells for 30 minutes with test or reference peptides, 5 μL of the cAMP acceptor cAMP-d2, prepared previously as a working solution from frozen stock (1:20 dilution), was added to each well of the assay plate, along with 5 μL of anti-cAMP antibody-cryptate working solution (diluted 1:20 from frozen stock). The wells were incubated for 1 hour at room temperature, and fluorescence was then read at 665 and 615 nm with an Envision reader with TRF laser. Data were saved and analyzed using Prism software (GraphPad). Concentration-response analysis was performed using 4-parameter logistic fits of the resulting data, and EC50 values obtained for each test and reference compound.
# [1] = Table 5, 0% albumin, read-out: cAMP EC50, nM (0% albumin)
# [2] = cAMP EC50, nM (0.1% albumin), Table 1, 0.1% albumin
# [3] = cAMP EC50, nM (0.1% albumin), Table 4, 0.1% albumin
# [4] = cAMP EC50, nM (0.1% albumin), Table 6, 0.1% albumin
smiles,measurement,setting,value
"C[C@@H](O)[C@H](NC(=O)CNC(=O)[C@H](CCC(=O)O)NC(=O)C(C)(C)NC(=O)[C@@H](N)Cc1c[nH]cn1)C(=O)N[C@@H](Cc1ccccc1)C(=O)N[C@H](C(=O)N[C@@H](CO)C(=O)N[C@@H](CC(=O)O)C(=O)N[C@@H](Cc1ccc(-c2ccccc2)cc1)C(=O)N[C@@H](Cc1ccc(-c2ccccc2)cc1)C(N)=O)[C@@H](C)O [1-1, H2N-His-Aib-Glu-Gly-Thr-Phe-Thr-Ser-Asp-Bip-Bip-C(O)NH2] (H-H[Aib]EGTFTSD[Bip][Bip]-NH2)",EC50,[1],6.82 nM
same,EC50,[2],6.82 nM
"C[C@@H](O)[C@H](NC(=O)CNC(=O)[C@H](CCC(=O)O)NC(=O)C(C)(C)NC(=O)[C@@H](N)Cc1c[nH]cn1)C(=O)N[C@@](C)(Cc1ccccc1F)C(=O)N[C@H](C(=O)N[C@@H](CO)C(=O)N[C@@H](CC(=O)O)C(=O)N[C@@H](Cc1ccc(-c2ccccc2)cc1)C(=O)N[C@@H](Cc1ccc(-c2ccccc2)cc1)C(N)=O)[C@@H](C)O [1-2, H2N-His-Aib-Glu-Gly-Thr-α-MePhe(2-F)-Thr-Ser-Asp-Bip-Bip-C(O)NH2] (H-H[Aib]EGT[αMePhe(2-F)]TSD[Bip][Bip]-NH2)",EC50,[1],0.09 nM
same,EC50,[2],0.09 nM
same,EC50,"cAMP EC50, nM (0.1% albumin), Table 3, 0.1% albumin",0.09 nM
same,EC50,[3],0.09 nM
same,EC50,[4],0.09 nM
"C[C@@H](O)[C@H](NC(=O)CNC(=O)[C@H](CCC(=O)O)NC(=O)C(C)(C)NC(=O)[C@@H](N)Cc1c[nH]cn1)C(=O)N[C@@](C)(Cc1ccccc1F)C(=O)N[C@H](C(=O)N[C@@H](CO)C(=O)N[C@@H](CC(=O)O)C(=O)N[C@@H](CCc1ccccc1)C(=O)N[C@@H](Cc1ccc(-c2ccccc2)cc1)C(N)=O)[C@@H](C)O [1-3, H2N-His-Aib-Glu-Gly-Thr-α-MePhe(2-F)-Thr-Ser-Asp-Hph-Bip-C(O)NH2] (H-H[Aib]EGT[αMePhe(2-F)]TSD[hPhe][Bip]-NH2)",EC50,[1],11 nM
"C[C@@H](O)[C@H](NC(=O)CNC(=O)[C@H](CCC(=O)O)NC(=O)C(C)(C)NC(=O)[C@@H](N)Cc1c[nH]cn1)C(=O)N[C@@](C)(Cc1ccccc1F)C(=O)N[C@H](C(=O)N[C@@H](CO)C(=O)N[C@@H](CC(=O)O)C(=O)N[C@@H](Cc1ccc(-c2ccccc2)cc1)C(=O)N[C@@H](CCc1ccccc1)C(N)=O)[C@@H](C)O [1-4, H2N-His-Aib-Glu-Gly-Thr-α-MePhe(2-F)-Thr-Ser-Asp-Bip-Hph-C(O)NH2] (H-H[Aib]EGT[αMePhe(2-F)]TSD[Bip][hPhe]-NH2)",EC50,[1],11 nM
same,EC50,[4],11 nM
"C[C@@H](O)[C@H](NC(=O)CNC(=O)[C@H](CCC(=O)O)NC(=O)C(C)(C)NC(=O)[C@H](Cc1c[nH]cn1)NC(=O)[C@@H](N)CCCNC(=N)N)C(=O)N[C@@H](Cc1ccccc1)C(=O)N[C@H](C(=O)N[C@@H](CO)C(=O)N[C@@H](CC(=O)O)C(=O)N[C@@H](Cc1ccc(-c2ccccc2)cc1)C(=O)N[C@@H](Cc1ccc(-c2ccccc2)cc1)C(N)=O)[C@@H](C)O [2-1, H2N-Arg-His-Aib-Glu-Gly-Thr-Phe-Thr-Ser-Asp-Bip-Bip-C(O)NH2] (H-RH[Aib]EGTFTSD[Bip][Bip]-NH2)",EC50,[3],10.6 nM
"C[C@@H](O)[C@H](NC(=O)CNC(=O)[C@H](CCC(=O)O)NC(=O)C(C)(C)NC(=O)[C@H](Cc1c[nH]cn1)NC(=O)[C@@H](N)CCC(=O)O)C(=O)N[C@@H](Cc1ccccc1)C(=O)N[C@H](C(=O)N[C@@H](CO)C(=O)N[C@@H](CC(=O)O)C(=O)N[C@@H](Cc1ccc(-c2ccccc2)cc1)C(=O)N[C@@H](Cc1ccc(-c2ccccc2)cc1)C(N)=O)[C@@H](C)O [2-2, H2N-Glu-His-Aib-Glu-Gly-Thr-Phe-Thr-Ser-Asp-Bip-Bip-C(O)NH2] (H-EH[Aib]EGTFTSD[Bip][Bip]-NH2)",EC50,[3],40.1 nM
"C[C@@H](O)[C@H](NC(=O)CNC(=O)[C@H](CCC(=O)O)NC(=O)C(C)(C)NC(=O)[C@H](Cc1c[nH]cn1)NC(=O)CN)C(=O)N[C@@H](Cc1ccccc1)C(=O)N[C@H](C(=O)N[C@@H](CO)C(=O)N[C@@H](CC(=O)O)C(=O)N[C@@H](Cc1ccc(-c2ccccc2)cc1)C(=O)N[C@@H](Cc1ccc(-c2ccccc2)cc1)C(N)=O)[C@@H](C)O [2-3, H2N-Gly-His-Aib-Glu-Gly-Thr-Phe-Thr-Ser-Asp-Bip-Bip-C(O)NH2] (H-GH[Aib]EGTFTSD[Bip][Bip]-NH2)",EC50,[3],21.1 nM
"C[C@@H](O)[C@H](NC(=O)CNC(=O)[C@H](CCC(=O)O)NC(=O)C(C)(C)NC(=O)[C@H](Cc1c[nH]cn1)NC(=O)[C@@H]1CCCN1)C(=O)N[C@@H](Cc1ccccc1)C(=O)N[C@H](C(=O)N[C@@H](CO)C(=O)N[C@@H](CC(=O)O)C(=O)N[C@@H](Cc1ccc(-c2ccccc2)cc1)C(=O)N[C@@H](Cc1ccc(-c2ccccc2)cc1)C(N)=O)[C@@H](C)O [2-4, H2N-Pro-His-Aib-Glu-Gly-Thr-Phe-Thr-Ser-Asp-Bip-Bip-C(O)NH2] (H-PH[Aib]EGTFTSD[Bip][Bip]-NH2)",EC50,[3],14.7 nM
"C[C@@H](O)[C@H](NC(=O)CNC(=O)[C@H](CCC(=O)O)NC(=O)C(C)(C)NC(=O)[C@H](Cc1c[nH]cn1)NC(=O)[C@@H](N)Cc1c[nH]c2ccccc12)C(=O)N[C@@H](Cc1ccccc1)C(=O)N[C@H](C(=O)N[C@@H](CO)C(=O)N[C@@H](CC(=O)O)C(=O)N[C@@H](Cc1ccc(-c2ccccc2)cc1)C(=O)N[C@@H](Cc1ccc(-c2ccccc2)cc1)C(N)=O)[C@@H](C)O [2-5, H2N-Trp-His-Aib-Glu-Gly-Thr-Phe-Thr-Ser-Asp-Bip-Bip-C(O)NH2] (H-WH[Aib]EGTFTSD[Bip][Bip]-NH2)",EC50,[3],10.9 nM
"CC(C)C[C@H](NC(=O)[C@@H](N)CCC(=O)O)C(=O)NC(C)(C)C(=O)N[C@@H](CCC(=O)O)C(=O)NCC(=O)N[C@H](C(=O)N[C@@](C)(Cc1ccccc1F)C(=O)N[C@H](C(=O)N[C@@H](CO)C(=O)N[C@@H](CC(=O)O)C(=O)N[C@@H](Cc1ccc(-c2ccccc2)cc1)C(=O)N[C@@H](Cc1ccc(-c2ccccc2)cc1)C(N)=O)[C@@H](C)O)[C@@H](C)O [2-6, H2N-Glu-Leu-Aib-Glu-Gly-Thr-α-MePhe(2-F)-Thr-Ser-Asp-Bip-Bip-C(O)NH2] (H-EL[Aib]EGT[αMePhe(2-F)]TSD[Bip][Bip]-NH2)",EC50,[3],9.2 nM
"CC(C)C[C@H](NC(=O)[C@@H](N)CCC(=O)O)C(=O)NC(C)(C)C(=O)N[C@@H](CC(=O)O)C(=O)NCC(=O)N[C@H](C(=O)N[C@@](C)(Cc1ccccc1F)C(=O)N[C@H](C(=O)N[C@@H](CO)C(=O)N[C@@H](CC(=O)O)C(=O)N[C@@H](Cc1ccc(-c2ccccc2)cc1)C(=O)N[C@@H](Cc1ccc(-c2ccccc2)cc1)C(N)=O)[C@@H](C)O)[C@@H](C)O [2-7, H2N-Glu-Leu-Aib-Asp-Gly-Thr-α-MePhe(2-F)-Thr-Ser-Asp-Bip-Bip-C(O)NH2] (H-EL[Aib]DGT[αMePhe(2-F)]TSD[Bip][Bip]-NH2)",EC50,[3],3.1 nM
"CC(C)C[C@H](NC(=O)[C@@H](N)Cc1ccccc1)C(=O)NC(C)(C)C(=O)N[C@@H](CCC(=O)O)C(=O)NCC(=O)N[C@H](C(=O)N[C@@](C)(Cc1ccccc1F)C(=O)N[C@H](C(=O)N[C@@H](CO)C(=O)N[C@@H](CC(=O)O)C(=O)N[C@@H](Cc1ccc(-c2ccccc2)cc1)C(=O)N[C@@H](Cc1ccc(-c2ccccc2)cc1)C(N)=O)[C@@H](C)O)[C@@H](C)O [2-8, H2N-Phe-Leu-Aib-Glu-Gly-Thr-α-MePhe(2-F)-Thr-Ser-Asp-Bip-Bip-C(O)NH2] (H-FL[Aib]EGT[αMePhe(2-F)]TSD[Bip][Bip]-NH2)",EC50,[3],4.1 nM
"CC(C)C[C@H](NC(=O)[C@@H](N)Cc1c[nH]cn1)C(=O)NC(C)(C)C(=O)N[C@@H](CC(=O)O)C(=O)NCC(=O)N[C@H](C(=O)N[C@@](C)(Cc1ccccc1F)C(=O)N[C@H](C(=O)N[C@@H](CO)C(=O)N[C@@H](CC(=O)O)C(=O)N[C@@H](Cc1ccc(-c2ccccc2)cc1)C(=O)N[C@@H](Cc1ccc(-c2ccccc2)cc1)C(N)=O)[C@@H](C)O)[C@@H](C)O [2-9, H2N-His-Leu-Aib-Asp-Gly-Thr-α-MePhe(2-F)-Thr-Ser-Asp-Bip-Bip-C(O)NH2] (H-HL[Aib]DGT[αMePhe(2-F)]TSD[Bip][Bip]-NH2)",EC50,[3],6.4 nM
"C[C@@H](O)[C@H](NC(=O)CNC(=O)[C@H](CCC(=O)O)NC(=O)C(C)(C)NC(=O)[C@@H](N)Cc1c[nH]cn1)C(=O)N[C@@H](Cc1ccccc1F)C(=O)N[C@H](C(=O)N[C@@H](CO)C(=O)N[C@@H](CC(=O)O)C(=O)N[C@@H](Cc1ccc(-c2ccccc2)cc1)C(=O)N[C@@H](Cc1ccc(-c2ccccc2)cc1)C(N)=O)[C@@H](C)O [3-1, H2N-His-Aib-Glu-Gly-Thr-Phe(2-F)-Thr-Ser-Asp-Bip-Bip-C(O)NH2] (H-H[Aib]EGT[Phe(2-F)]TSD[Bip][Bip]-NH2)",EC50,[2],0.32 nM
"C[C@@H](O)[C@H](NC(=O)CNC(=O)[C@H](CCC(=O)O)NC(=O)C(C)(C)NC(=O)[C@@H](N)Cc1c[nH]cn1)C(=O)N[C@@H](Cc1ccccc1Cl)C(=O)N[C@H](C(=O)N[C@@H](CO)C(=O)N[C@@H](CC(=O)O)C(=O)N[C@@H](Cc1ccc(-c2ccccc2)cc1)C(=O)N[C@@H](Cc1ccc(-c2ccccc2)cc1)C(N)=O)[C@@H](C)O [3-2, H2N-His-Aib-Glu-Gly-Thr-Phe(2-Cl)-Thr-Ser-Asp-Bip-Bip-C(O)NH2] (H-H[Aib]EGT[Phe(2-Cl)]TSD[Bip][Bip]-NH2)",EC50,[2],4.5 nM
